Measurements reported in the supplement of paper PMC8967900.

Key:
Test in all cases: selective drug sensitivity score (sDSS, relative to normal bone marrow) (sDSS (score)); higher = more potent and effective on the cell line relative to normal bone marrow cells
Settings in all cases: 72 h
697 = tested on: 697
ALL-PO = tested on: ALL-PO
COG-LL-332h = tested on: COG-LL-332h
COG-LL-394h = tested on: COG-LL-394h
COG-LL-402h = tested on: COG-LL-402h
HPB-ALL = tested on: HPB-ALL
JURKAT = tested on: JURKAT
KASUMI-2 = tested on: KASUMI-2
KASUMI-9 = tested on: KASUMI-9
KOPN-8 = tested on: KOPN-8
MHH-CALL-3 = tested on: MHH-CALL-3
MOLT-14 = tested on: MOLT-14
MOLT-16 = tested on: MOLT-16
NALL-1 = tested on: NALL-1
P12-ICHIKAWA = tested on: P12-ICHIKAWA
P30-OHKUBO = tested on: P30-OHKUBO
RPMI-8402 = tested on: RPMI-8402
SUP-B15 = tested on: SUP-B15
TANOUE = tested on: TANOUE
TMD5 = tested on: TMD5
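Also: ALL cell lines in 384-well plates, five doses spanning 10,000-fold, each plate scaled between vehicle and 100 µmol/L benzalkonium chloride controls, sDSS an adapted area-under-curve metric.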

Compound	selective drug sensitivity score 697	selective drug sensitivity score (ALL-PO)	selective drug sensitivity score (COG-LL-332h)	selective drug sensitivity score (COG-LL-394h)	selective drug sensitivity score (COG-LL-402h)	selective drug sensitivity score (HPB-ALL)	selective drug sensitivity score (JURKAT)	selective drug sensitivity score (KASUMI-2)	selective drug sensitivity score (KASUMI-9)	selective drug sensitivity score (KOPN-8)	selective drug sensitivity score (MHH-CALL-3)	selective drug sensitivity score (MOLT-14)	selective drug sensitivity score (MOLT-16)	selective drug sensitivity score (NALL-1)	selective drug sensitivity score (P12-ICHIKAWA)	selective drug sensitivity score (P30-OHKUBO)	selective drug sensitivity score (RPMI-8402)	selective drug sensitivity score (SUP-B15)	selective drug sensitivity score (TANOUE)	selective drug sensitivity score (TMD5)
CC(C)Oc1ccc(C(=O)N[C@H](CNC(=O)CN(C)C)Cc2ccc(-c3cn4cccc([C@H](C)O)c4n3)cc2)cc1Cl (top concentration 10000 nM)	19.9	6.88	16.5	-0.72	10.6	8.18	13.6	6.38	10.3	14.2	-9.32	17.4	20.1	9.88	7.28	12.8	9.28	14.8	-9.32	5.18
CCn1c(-c2nonc2N)nc2cnc(Oc3cccc(NC(=O)c4ccc(OCCN5CCOCC5)cc4)c3)cc21 (top concentration 10000 nM)	18.3	-2.14	11	1.56	7.66	-1.14	3.76	14.3	11.6	11.3	-2.34	2.46	12.1	8.46	17.1	10.9	7.66	19.3	-5.44	6.36
CC(C)(C#N)c1cc(Cn2cncn2)cc(C(C)(C)C#N)c1 [Anastrozole] (top concentration 10000 nM)	0	0	0	0	0	0.2	0	0	0	0	0	0	0	0	0	0	0	0	0	0.6
Cc1sc2c(c1C)C(c1ccc(Cl)cc1)=N[C@@H](CC(=O)Nc1ccc(O)cc1)c1nnc(C)n1-2 [Birabresib] (top concentration 10000 nM)	10.6	5.22	-4.28	-0.08	7.12	-0.08	-1.98	-9.68	13.1	11.6	14	1.72	7.92	-3.58	5.22	7.22	3.72	3.42	-4.78	-9.18
Nc1ccn([C@@H]2O[C@H](CO)[C@@H](O)[C@@H]2O)c(=O)n1 [Cytarabine] (top concentration 10000 nM)	27.7	8.6	25.5	-10	26.9	2.7	17.9	16.6	22.7	20.9	15.8	25.6	22.5	10.6	24.5	26.2	18.6	27.7	-8.9	-10
COc1cccc2c1C(=O)c1c(O)c3c(c(O)c1C2=O)C[C@@](O)(C(C)=O)C[C@@H]3O[C@H]1C[C@H](N)[C@H](O)[C@H](C)O1 [Daunorubicin] (top concentration 1000 nM)	9.06	-0.34	12.1	8.66	15.8	-1.64	2.96	10.8	7.06	6.56	16.4	9.66	13.5	-4.04	6.96	6.46	8.96	11.9	-9.54	1.86
Nc1ncn([C@H]2C[C@H](O)[C@@H](CO)O2)c(=O)n1 [Decitabine] (top concentration 10000 nM)	17.5	4.54	4.34	-6.06	3.34	-0.66	4.04	-2.26	-0.16	10.2	2.34	0.44	5.94	-5.96	1.14	4.64	1.24	16.5	-6.06	-5.56
CCN(CC)C(=S)SSC(=S)N(CC)CC [Disulfiram(+CuCl2)] (top concentration 50000 nM)	-1.02	-2.12	-0.52	-1.02	-0.32	15.8	-2.12	5.18	2.28	15.8	1.78	-2.02	13.9	16.1	-2.12	0.78	-2.12	10.7	-1.62	-2.12
Nc1nc(F)nc2c1ncn2[C@@H]1O[C@H](CO)[C@@H](O)[C@@H]1O [Fludarabine] (top concentration 10000 nM)	7.3	1.6	0.6	-10.6	8	0.3	-5.5	5.3	6	8.4	7.5	4.3	2.6	2.3	-5.5	7.7	-3.6	9.4	-10.3	-10.6
Nc1nc(OCc2cc(Br)cs2)c2[nH]cnc2n1 [Lomeguatrib] (top concentration 10000 nM)	0.4	0.5	0	0	0	0.1	0	0	0	0	0	0	0	0	0	0	0	0	0	0
Cc1cc(OCc2nnc(SC3CCCC3)n2-c2cccnc2)ccc1-c1ccc(S(C)(=O)=O)cc1 [NMS-873] (top concentration 10000 nM)	14.1	4.36	5.86	14.6	2.56	6.26	26.5	4.26	1.26	4.06	6.06	7.16	17.6	3.26	19.9	4.66	21.3	10.6	19.4	2.26
COC(=O)c1ccc2c(c1)NC(=O)/C2=C(\Nc1ccc(N(C)C(=O)CN2CCN(C)CC2)cc1)c1ccccc1 [Nintedanib] (top concentration 10000 nM)	0.84	11.1	4.44	2.14	5.14	0.64	-4.86	-6.36	-1.26	-5.26	-0.26	1.64	-2.26	-2.76	-2.96	-1.46	1.14	9.44	-6.36	0.84
O=C(c1cc(Cc2n[nH]c(=O)c3ccccc23)ccc1F)N1CCN(C(=O)C2CC2)CC1 [Olaparib] (top concentration 10000 nM)	6.78	-0.12	4.98	-1.32	4.38	-1.32	1.58	4.78	4.98	9.68	21.9	10.4	9.08	1.28	-0.82	2.98	-0.02	13.1	-3.42	4.48
O=C(O)C(=O)O.[NH-][C@@H]1CCCC[C@H]1[NH-].[Pt+2] [Oxaliplatin] (top concentration 100000 nM)	16	-0.78	14.9	8.32	12.9	-0.78	5.52	12.8	13.6	16.9	10.3	9.22	17.1	2.92	8.32	14.1	8.02	16.6	-6.98	-0.08
CS(=O)(=O)N1CCN(Cc2cc3nc(-c4cccc5[nH]ncc45)nc(N4CCOCC4)c3s2)CC1 [Pictilisib] (top concentration 10000 nM)	7.36	14.6	0.46	-0.74	12.9	-0.04	0.36	8.46	10.1	14.8	10.6	-2.04	4.16	-0.64	1.16	13	6.26	0.16	-5.84	2.56
CCOC(=O)C1=CCCC[C@H]1S(=O)(=O)Nc1ccc(F)cc1Cl [Resatorvid] (top concentration 10000 nM)	0	0	0	0	0.4	0	0	0	0	0.2	0	0	0	0	0	0	0	0	0	0
CO[C@H]1C[C@@H]2CC[C@@H](C)[C@@](O)(O2)C(=O)C(=O)N2CCCC[C@H]2C(=O)O[C@H]([C@H](C)C[C@@H]2CC[C@@H](OP(C)(C)=O)[C@H](OC)C2)CC(=O)[C@H](C)/C=C(\C)[C@@H](O)[C@@H](OC)C(=O)[C@H](C)C[C@H](C)/C=C/C=C/C=C/1C [Ridaforolimus] (top concentration 100 nM)	12.5	2.66	7.36	-4.84	4.66	-4.84	0.26	8.66	6.96	22.2	3.96	-2.44	10.6	-4.44	-0.94	4.36	-1.44	8.96	-4.84	-4.84
